Test results from patent US10550114B2, “Kinase inhibitors and their use in cancer therapy” (TECHNISCHE UNIVERSITÄT DORTMUND, priority 2015, dated 2020).
Like-named read-outs stand apart in the source and are kept apart here.

Columns and labels:
MAP4K5 = MAP4K5 (Homo sapiens (Human), UniProt Q9Y4K4); test: Z'LYTE kinase assay, SelectScreen panel; assay type: biochemical; conditions: 1 μM compound, apparent ATP KM
PC3 cells = test: Western blot in prostate cancer cells; assay type: cell-based, human; conditions: PC3, 24 hours
Procedure: (§1) Human ductal breast carcinoma cells (BT474) and human prostate adenocarcinoma cells (PC-3) were purchased from the ATCC (Bethesda, Md., USA) and were cultured in RPMI 1640 medium (Life Technologies, Germany) supplemented with 10% (v/v) fetal calf serum (FCS; Biochrom, Berlin, Germany) and maintained in a humidified incubator at 37° C. and 5% CO2 (C200, Labotect Incubator, Göttingen, Germany).
(§2) BT474 and PC-3 cells were lysed for 10 min at 95° C. in 62.5 mM Tris-HCl (pH 6.8), 2% (w/v) SDS, 10% (v/v) glycerol, 80 mM DTT, and 0.01% (w/v) bromophenol blue (350.000 cells per 100 μL lysis buffer). Proteins were separated by SDS-PAGE and blotted onto PVDF-membranes (Roth, Karlsruhe, Germany) using Fastblot according to manufacturer's manual (B44, Biometra, Goettingen, Germany). After blocking with 5% (w/v) nonfat dry milk membranes were incubated at 4° C. over night with the respective primary antibody (1:20.000 for β-actin, 1:1000 for all other antibodies). After washing, the membranes were incubated for 1 h at room temperature with the secondary antibody (anti-IgG-HRP 1:2000, CST, Frankfurt, Germany) washed again and monitored by chemiluminescence imaging using FUSION Solo (peqlab, Erlangen, Germany) and appropriate ECL Prime Western blotting detection reagent according to the manufacturer's protocol (GE Healthcare/Amersham-Biosciences, Freiburg, Germany). […]

BT474 cells = test: Western blot in breast cancer cells; assay type: cell-based, human; conditions: BT474, 24 hours
Procedure: as §1, §2

GIST-T1 cells = test: Western blot in gastrointestinal stromal tumor cells; assay type: cell-based, human; conditions: GIST-T1, 24 hours
Procedure: For GIST-T1 cells protein lysates were prepared from cell line monolayers according to standard protocols as described in A. Duensing, F. Medeiros, B. McConarty, N. E. Joseph, D. Panigrahy, S. Singer, C. […] Protein concentrations were determined with the Bio-Rad Protein Assay (Bio-Rad Laboratories, Hercules, Calif.). Electrophoresis and immunoblotting were carried out as described in B. P. Rubin, S. Singer, C. Tsao, A. Duensing, M. L. Lux, R. Ruiz, M. K. Hibbard, C. J. Chen, S. Xiao, D. A. Tuveson, G. D. Demetri, C.
Controls were treated with dimethyl sulfoxide (DMSO).

[1] = Maximum tolerated dose in mice; conditions: RjOrl:SWISS, mouse, in vivo, ip, PBS/PEG200 (60:40)
[2] = Pharmacokinetic profiling in mice (plasma, LC-MS/MS); conditions: for bioavailability: CD1, mouse, in vivo
Procedure: EDTA was added to plasma in order to prevent blood from coagulation. The compound concentrations in the particular plasma samples were determined by LC-MS/MS, as follows:
Samples and blanks were prepared by adding 2.5 μL blank DMSO and 80 μL of ice-cold acetonitrile containing the internal standard (Griseofulvin, 1 μM) to 20 μl plasma followed by centrifugation at 13000 rpm (4° C.) for 10 min. 65 μL of the supernatant were diluted with 65 μL of LC-MS grade water. Samples were filtered (Millipore MSRLN0450 hydrophil) and subjected to LC-MS measurement. […] 2.5 μL of the corresponding DMSO stock solution were added to 20 μL of blank plasma followed by the addition of 80 μL of ice-cold acetonitrile containing the internal-standard. The samples were centrifuged for 10 min and 4° C. at 13000 rpm. 65 μL of the supernatant were diluted with 65 μL of LC-MS grade water and subjected to LC-MS analysis. A set of 3 different QCs (n=3) was prepared by adding of 2.5 μL DMSO stock solution (5, 0.5 and 0.05 μM) to 20 μL of plasma. Samples were subsequently handled as described above. All samples were analyzed using a Shimadzu LC20ADXR Solvent Delivery Unit, a Shimadzu SIL30ACMP autosampler and a ABSciex Qtrap5500 LC-MS/MS system. Therefore, 2 μL of sample were injected and separated using an Agilent Poroshell C18, 2.7 μm column (2.1 mm×50 mm) at 60° C. starting at 5% of solvent B for 0.3 min followed by a gradient up to 100% of solvent B over 0.6 min (flow rate 1 mL/min) with 0.1% formic acid in water as solvent A and 0.1% formic acid in acetonitrile as solvent B. Data evaluation was performed using Analyst 1.6.2 Software (Sciex).

[3] = molecular target: fluorescently labeled full-length Akt1 (Homo sapiens (Human), UniProt P31749, C296S/C310S/C344S/E49C); test: iFLiK binding analysis; conditions: fluorophore-labeled Akt1 200 nM; n.r. = no response up to 100 μM
Sequence of fluorescently labeled full-length Akt1 (P31749 whole entry E49C/C296S/C310S/C344S): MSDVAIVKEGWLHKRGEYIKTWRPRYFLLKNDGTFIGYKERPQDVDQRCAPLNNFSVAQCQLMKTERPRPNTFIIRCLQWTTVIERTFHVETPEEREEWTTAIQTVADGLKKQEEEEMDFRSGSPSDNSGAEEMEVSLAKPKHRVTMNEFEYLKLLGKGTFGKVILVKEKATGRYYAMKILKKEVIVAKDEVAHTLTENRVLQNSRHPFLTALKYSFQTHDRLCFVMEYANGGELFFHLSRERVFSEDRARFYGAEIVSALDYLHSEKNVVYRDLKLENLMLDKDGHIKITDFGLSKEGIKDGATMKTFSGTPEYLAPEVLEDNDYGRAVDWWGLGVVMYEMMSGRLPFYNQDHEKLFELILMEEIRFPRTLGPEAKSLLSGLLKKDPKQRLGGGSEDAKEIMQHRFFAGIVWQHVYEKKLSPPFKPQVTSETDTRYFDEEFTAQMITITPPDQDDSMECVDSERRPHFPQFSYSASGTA
Procedure: Afterwards they were cloned into pREN4427-HIS-DEST vector and introduced into a baculovirus using the BacMagic Kit (Calbiochem) in Sf9 cells (Invitrogen). Protein expression, purification and labeling was performed according to standard protocols.
The final concentration of fluorophore-labeled recombinant Akt1 was 200 nM.

[4] = molecular target: T1, activated full-length wtAkt1 (Homo sapiens (Human), UniProt P31749); test: Time-dependent activity-based screening; assay type: biochemical; conditions: incubation 10, 30, 60 or 300 minutes
T1 sequence (P31749 whole entry): as the sequence (P31749 whole entry E49C/C296S/C310S/C344S) above, with C49E, S296C, S310C, S344C counted along it

[5] = molecular target: T1, activated full-length wtAkt1; test: Activity-based (HTRF) assay, manual dilution series; conditions: for higher concentration required for half-maximum inhibition of Akt1 versus alkenyl counterpart: 1b vs 1a, 2b vs 2a
Text: OriginPro 9.1G software (OriginLab Corporation, Northhampton, Mass.) was used for data analysis and data was fit to a sigmoidal dose-response model using the following four-parameter logistic equation:
(§5) The potential influence of the reactive alkenyl group functioning as a Michael acceptor was further evaluated and the inhibitory potencies further assessed in activity-based studies utilizing activated full-length wtAkt1 (Millipore).

[6] = molecular target: T1, activated full-length wtAkt1; test: Kinetic characterization by determination of kinact/Ki (time-dependent IC50); assay type: biochemical; conditions: incubation 1 to 120 minutes; manual dilution series
Procedure: (§3) Time-dependent IC50 measurements were performed with activated full-length Akt1 as described under “Biochemical assays”. Briefly, IC50 values were determined for twelve different incubation times and afterwards plotted versus accordingly. Data was analyzed according to literature procedure as described in B. F. Krippendorff, R. Neuhaus, P. Lienau, A. Reichel, W. Huisinga, J. Biomol. Screen.
(§4) Calculated IC50 values were plotted versus the incubation time and data was fit as described in the literature to determine kinact and Ki as described above.

wild-type Akt1 [7] = molecular target: T2, wild-type Akt1 (Homo sapiens (Human), UniProt P31749); test: ESI-MS of compound-treated Akt1; assay type: binding; conditions: 2 molar equivalents, thirty minutes on ice, vs DMSO control
T2 sequence (P31749 whole entry): as the sequence (P31749 whole entry E49C/C296S/C310S/C344S) above, with C49E, S296C, S310C, S344C counted along it
Procedure: Purified full-length wtAkt1 was thawed under cold water and diluted to a final concentration of 1 mg/mL in storage buffer (50 mM HEPES, 200 mM NaCl, 10% Glycerol, pH 7.4). […] Following incubation for thirty minutes on ice, the samples were analyzed by ESI-MS using an Agilent 1100 Series HPLC System connected to a ThermoFinnigan LTQ Linear Ion Trap mass spectrometer. […] During the complete experiment, a mass range of 700 to 2000 m/z was scanned and raw data was deconvoluted and analyzed with MagTran and mMass (Version 5.5.0) software.

Full-length wtAkt1 = Full-length wtAkt1 (Homo sapiens (Human), UniProt P31749); test: ESI-MS/MS analysis after tryptic digest; assay type: binding; conditions: 2-fold molar excess
Sequence of Full-length wtAkt1 (P31749 whole entry): as the sequence (P31749 whole entry E49C/C296S/C310S/C344S) above, with C49E, S296C, S310C, S344C counted along it
Procedure: Protoc. […] 3 μL of sample were loaded onto a pre-column cartridge and desalted for 5 min using 0.1% TFA in water as eluent at a flow rate of 30 μL/min. The samples were back-flushed from the pre-column to the nano-HPLC column during the whole analysis. […] During the complete gradient cycle, a typical TOP10 shot-gun proteomics method for the MS and MS/MS analysis was used. […] Biotechnol.

[8] = molecular target: activated full-length Akt1 (Homo sapiens (Human), UniProt P31749); test: Kinetic parameters (Ki, kinact), ECHO520 dilution series; assay type: biochemical; conditions: for kinact/KI: ECHO520
Sequence of activated full-length Akt1 (P31749 whole entry): as the sequence (P31749 whole entry E49C/C296S/C310S/C344S) above, with C49E, S296C, S310C, S344C counted along it
Procedure: as §3, §4

wild-type Akt1 [9] = molecular target: T2, wild-type Akt1; test: Activity-based assay, ECHO520 dilution series; assay type: biochemical
Text: as §5

Akt1_E17K = Akt1_E17K (Homo sapiens (Human), UniProt P31749, E17K); test: Activity-based assay, ECHO520 dilution series; assay type: biochemical; conditions: mutant Akt1_E17K
Sequence of Akt1_E17K (P31749 whole entry E17K): as the sequence (P31749 whole entry E49C/C296S/C310S/C344S) above, with E17K, C49E, S296C, S310C, S344C counted along it
Text: as §5

[10] = activated full-length wtAkt1, 120 pM, manual dilution series

Sequence of MAP4K5 (Q9Y4K4 whole entry): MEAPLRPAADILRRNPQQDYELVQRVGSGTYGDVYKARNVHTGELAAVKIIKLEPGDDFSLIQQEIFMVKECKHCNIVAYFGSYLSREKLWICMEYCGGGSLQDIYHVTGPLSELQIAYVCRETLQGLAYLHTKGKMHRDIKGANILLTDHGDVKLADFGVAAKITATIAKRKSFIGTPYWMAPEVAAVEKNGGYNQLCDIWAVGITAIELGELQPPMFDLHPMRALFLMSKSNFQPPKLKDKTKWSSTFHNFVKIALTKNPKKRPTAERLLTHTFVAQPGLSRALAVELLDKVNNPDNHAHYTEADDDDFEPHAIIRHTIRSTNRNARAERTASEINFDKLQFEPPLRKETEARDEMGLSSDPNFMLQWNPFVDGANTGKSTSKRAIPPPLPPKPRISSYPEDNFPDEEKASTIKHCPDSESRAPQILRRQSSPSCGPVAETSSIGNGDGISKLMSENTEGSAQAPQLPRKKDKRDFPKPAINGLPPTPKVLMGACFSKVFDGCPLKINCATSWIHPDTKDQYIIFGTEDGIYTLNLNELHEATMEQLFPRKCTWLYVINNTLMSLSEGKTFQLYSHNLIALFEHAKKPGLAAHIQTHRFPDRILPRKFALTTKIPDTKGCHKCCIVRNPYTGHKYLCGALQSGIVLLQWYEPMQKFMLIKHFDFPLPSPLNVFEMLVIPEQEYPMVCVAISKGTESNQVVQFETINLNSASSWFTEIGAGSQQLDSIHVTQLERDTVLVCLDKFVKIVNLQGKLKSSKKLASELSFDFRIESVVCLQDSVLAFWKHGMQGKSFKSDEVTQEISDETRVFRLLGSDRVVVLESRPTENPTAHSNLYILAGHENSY

In the case of `C=CC(=O)Nc1ccc2[nH]c(=O)n(C3CCN(Cc4ccc(-c5nc6cc[nH]c(=O)c6cc5-c5ccccc5)cc4)CC3)c2c1` [Compound 1a, N-(2-oxo-3-(1-(4-(5-oxo-3-phenyl-5,6-dihydro-1,6-naphthyridin-2-yl)benzyl)piperidin-4-yl)-2,3-dihydro-1H-benzo[d]imidazol-5-yl) acrylamide], the inhibition at 1 µM (MAP4K5) is reported as 37%, the “phosphorylation of Akt1 substrate GSK3β” value (PC3 cells) is reported as “decreased phosphorylation” and the “pAkt1 (Thr308 and Ser473) level” value (PC3 cells; 0.01-10 μM) is reported as “dose-dependent decreases of pAkt1”. For the same compound, the “phosphorylation of Akt1 substrate GSK3β” value (BT474 cells) was “decreased phosphorylation”, the “pAkt1 (Thr308 and Ser473) level” value (BT474 cells; 0.01-10 μM) was “dose-dependent decreases of pAkt1” and the “phosphorylation of downstream targets S6 and 4EBP1” value (GIST-T1 cells) was “decreasing phosphorylation”. The “cellular pAkt1 levels” value (GIST-T1 cells; 0.001-0.1 μM) was “reduces cellular pAkt1 levels at low nanomolar concentrations”, the MTD [1] was 20 mg/kg and the bioavailability ([2]; ip, 20 mg/kg) was 47.7%. For the same compound, the bioavailability ([2]; po, 20 mg/kg) was 10.8%, the maximum plasma concentration ([2]; i.p., 20 mg/kg) was 1.15 µM and the “time of maximum plasma concentration” value ([2]; i.p., 20 mg/kg) was 45 min. For the same compound, the maximum plasma concentration ([2]; i.v., 2 mg/kg) was 1.05 µM, the “time of maximum plasma concentration” value ([2]; i.v., 2 mg/kg) was “immediately after injection” and the maximum plasma concentration ([2]; p.o., 20 mg/kg) was 0.62 µM. The “time of maximum plasma concentration” value ([2]; p.o., 20 mg/kg) was 15 min.

In the case of `CCC(=O)Nc1ccc2[nH]c(=O)n(C3CCN(Cc4ccc(-c5nc6cc[nH]c(=O)c6cc5-c5ccccc5)cc4)CC3)c2c1` [Compound 1b, N-(2-OXO-3-(1-(4-(5-OXO-3-PHENYL-5,6-DIHYDRO-1,6-NAPHTHYRIDIN-2-YL)BENZYL)PIPERIDIN-4-YL)-2,3-DIHYDRO-1H-BENZO[D]IMIDAZOL-5-YL) PROPIONAMIDE], the Kd [3] is reported as 0.062 ± 0.012 µM, the “time dependence of dose-response curves” value [4] is reported as “No differences were observed” and the “higher concentration required for half-maximum inhibition of Akt1 versus alkenyl counterpart” value [5] is reported as 10 fold. The IC50 [5, 10] was 0.0075 ± 0.002 µM.

With `C=CC(=O)Nc1cccc(-c2cn(C3CCN(Cc4ccc(-c5nc6ccccn6c5-c5ccccc5)cc4)CC3)nn2)c1` [Compound 2a, N-[3-(1-{1-[4-(3-Phenylimidazo[1,2-a]pyridin-2-yl)benzyl]piperidin-4-yl}-1H-1,2,3-triazol-4-yl)phenyl]acrylamide] the Kd [3] was 0.795 ± 0.176 µM, the kinact/KI [6] was 2300 ± 300 M⁻¹ s⁻¹ and the “mass increase of Akt1 (single labeled)” value (wild-type Akt1 [7]) was 572 Da. For the same compound, the covalently modified residues (Full-length wtAkt1) was “covalently bind to Akt1 at Cys296 and Cys310”, the IC50 [5] was 0.372 ± 0.048 µM and the IC50 [5, 10] was 0.372 ± 0.048 µM.

With `CCC(=O)Nc1cccc(-c2cn(C3CCN(Cc4ccc(-c5nc6ccccn6c5-c5ccccc5)cc4)CC3)nn2)c1` [Compound 2b, N-[3-(1-{1-[4-(3-Phenylimidazo[1,2-a]pyridin-2-yl)benzyl]piperidin-4-yl}-1H-1,2,3-triazol-4-yl)phenyl]propionamide] the Kd [3] was 0.797 ± 0.18 µM, the IC50 [5] was 0.992 ± 0.328 µM and the “higher concentration required for half-maximum inhibition of Akt1 versus alkenyl counterpart” value [5] was 4 fold.

With `CCC(=O)Nc1cccc(C(=O)NC2CCN(Cc3ccc(-c4nc5cc[nH]c(=O)c5cc4-c4ccccc4)cc3)CC2)c1` [Compound 27] the Kd [3] was 0.079 ± 0.021 µM and the IC50 [5, 10] was 0.0182 ± 0.0133 µM.

In the case of `CN(C)C/C=C/C(=O)Nc1ccc2[nH]c(=O)n(C3CCN(Cc4ccc(-c5nc6cc[nH]c(=O)c6cc5-c5ccccc5)cc4)CC3)c2c1` [Compound 36], the kinact [8] is reported as 0.00102 s⁻¹ and the kinact/KI [8] is reported as 51000 ± 10000 M⁻¹ s⁻¹.

Compound `N#C/C(=C\C1CC1)C(=O)Nc1cccc(C(=O)NC2CCN(Cc3ccc(-c4nc5cc[nH]c(=O)c5cc4-c4ccccc4)cc3)CC2)c1` [Compound 45] has a kinact [8] of 0.00182 s⁻¹ and a kinact/KI [8] of 41000 ± 9000 M⁻¹ s⁻¹.

Work on `C=CC(=O)Nc1ccc2c(c1)n(C1CCN(Cc3ccc(-c4nc5cc[nH]c(=O)c5cc4-c4ccccc4)cc3)CC1)c(=O)n2C` [Compound 46] yielded a Ki [8] of 0.001 to 0.0189 µM, a kinact [8] of 0.00202 s⁻¹ and a kinact/KI [8] of 190000 ± 25000 M⁻¹ s⁻¹.

Compound `C=CC(=O)Nc1ccc(C(=O)NC2CCN(Cc3ccc(-c4nc5cc[nH]c(=O)c5cc4-c4ccccc4)cc3)CC2)c(F)c1` [Compound 47] has an IC50 (wild-type Akt1 [9]) of 0.0213 ± 0.0018 µM and an IC50 (Akt1_E17K) of 2.9 ± 0.137 µM.

Compound `C=CC(=O)Nc1ccc(C(=O)NC2CCN(Cc3ccc(-c4nc5cc[nH]c(=O)c5cc4-c4ccccc4)cc3)CC2)s1` [Compound 48] has an IC50 (wild-type Akt1 [9]) of 0.0081 ± 0.0004 µM and an IC50 (Akt1_E17K) of 0.397 ± 0.172 µM.

With `NC1(c2ccc(-c3nc4ccn5c(=O)[nH]nc5c4cc3-c3ccccc3)cc2)CCC1` [MK-2206, reference compound] the “time dependence of dose-response curves” value [4] was “No differences were observed”.
